± gives the expanded uncertainty stated by the source.
Assay: refractive index (other wavelength) (dimensionless); xn = mol fraction of the nth substance listed
Conditions: 308.15 K, 101 kPa, Liquid, Standard Abbe refractometry

CC(C)OC(C)C [diisopropyl ether] + CO
refractive index
Conditions	Wavelength=546.1 nm	Wavelength=587.6 nm	Wavelength=589.3 nm	Wavelength=632.8 nm
x2 = 0	–	1.36127 ± 0.00043	1.35983 ± 0.00043	1.35853 ± 0.00043
x2 = 0.0423	–	1.35972 ± 0.00043	1.35967 ± 0.00043	1.35842 ± 0.00043
x2 = 0.0424	–	1.35977 ± 0.00043	1.35973 ± 0.00043	1.35859 ± 0.00043
x2 = 0.082	–	1.35971 ± 0.00042	1.35966 ± 0.00042	1.35842 ± 0.00042
x2 = 0.0822	–	1.35986 ± 0.00042	1.3598 ± 0.00042	1.35855 ± 0.00042
x2 = 0.1171	–	1.3597 ± 0.00041	1.35965 ± 0.00041	1.35843 ± 0.00041
x2 = 0.1271	–	1.35972 ± 0.00041	1.35966 ± 0.00041	1.35843 ± 0.00041
x2 = 0.1827	–	1.35947 ± 0.0004	1.35942 ± 0.0004	1.35818 ± 0.0004
x2 = 0.2162	–	1.35928 ± 0.0004	1.35923 ± 0.0004	1.35801 ± 0.0004
x2 = 0.251	–	1.35892 ± 0.00039	1.35889 ± 0.00039	1.35764 ± 0.00039
x2 = 0.3298	–	1.35886 ± 0.00038	1.35881 ± 0.00038	1.35757 ± 0.00038
x2 = 0.3577	–	1.35865 ± 0.00038	1.35856 ± 0.00038	1.35731 ± 0.00038
x2 = 0.4497	–	1.35673 ± 0.00037	1.35668 ± 0.00037	1.35545 ± 0.00037
x2 = 0.4525	–	1.35714 ± 0.00037	1.35709 ± 0.00037	1.35586 ± 0.00037
x2 = 0.522	1.35635 ± 0.00035	1.35495 ± 0.00035	1.3549 ± 0.00035	1.3537 ± 0.00035
x2 = 0.5543	1.35561 ± 0.00035	1.35422 ± 0.00035	1.35417 ± 0.00035	1.35297 ± 0.00035
x2 = 0.609	1.35321 ± 0.00034	1.35182 ± 0.00034	1.35177 ± 0.00034	1.35057 ± 0.00034
x2 = 0.6529	1.35171 ± 0.00034	1.35032 ± 0.00034	1.35027 ± 0.00034	1.34908 ± 0.00034
x2 = 0.7504	1.34787 ± 0.00033	1.34649 ± 0.00033	1.34644 ± 0.00033	1.34527 ± 0.00033
x2 = 0.804	1.34371 ± 0.00033	1.34236 ± 0.00033	1.34231 ± 0.00033	1.34115 ± 0.00033
x2 = 0.807	1.3435 ± 0.00033	1.34213 ± 0.00033	1.34208 ± 0.00033	1.34093 ± 0.00033
x2 = 0.8727	1.33978 ± 0.00032	1.33843 ± 0.00032	1.33838 ± 0.00032	1.33724 ± 0.00032
x2 = 0.9233	1.33175 ± 0.00033	1.33046 ± 0.00033	1.33042 ± 0.00033	1.32933 ± 0.00033
x2 = 0.9253	1.33368 ± 0.00033	1.33239 ± 0.00033	1.33234 ± 0.00033	1.33125 ± 0.00033
x2 = 0.9527	1.33062 ± 0.00032	1.32932 ± 0.00032	1.32928 ± 0.00032	–
x2 = 0.9773	1.32717 ± 0.00032	1.32591 ± 0.00032	1.32586 ± 0.00032	–
x2 = 0.989	1.32594 ± 0.00032	1.32469 ± 0.00032	1.32465 ± 0.00032	–
x2 = 0.9964	1.32489 ± 0.00032	1.32366 ± 0.00032	1.32361 ± 0.00032	–

Source: the NIST ThermoML archive (doi:10.1016/j.fluid.2014.09.014)
